Experimental data published in US4451457A, “Cyclodextrin and method for promoting the proliferation of intestinal bifidobacteria” (Kureha Kagaku Kogyo Kabushiki Kaisha, priority 1981, dated 1984).

Legend:
[1] = Acute toxicity, LD50 in rats; type: in vivo, rat; details: in vivo, male rat
Procedure: (§1) Each cyclodextrin (α-, β- and γ-) was administered via the following routes to rats and mice and LD50 was measured.

[2] = test system: rat; experiment: Acute toxicity, LD50 in rats; type: in vivo; details: female rat
Procedure: as §1

[3] = Acute toxicity, LD50 in mice; type: in vivo, Mouse; details: in vivo, male mouse
Procedure: as §1

[4] = test system: Mouse; experiment: Acute toxicity, LD50 in mice; type: in vivo; details: female mouse
Procedure: as §1

[5] = test system: Bacteroides sp.; experiment: Viable count of Bacteroides sp. in feces of mice; type: in vivo, female C3H/He mice; details: for Rate of proliferation (B/A), Bacteroides sp. / Viable count 7 days after (B) administration, Bacteroides sp.: 2.0 g/kg/day; for Rate of proliferation (B/A), Bacteroides sp.: 7 days after / before; for Viable count 7 days after (B) administration, Bacteroides sp. / Viable count before (A) administration, Bacteroides sp.: average of five mice
Procedure: (§2) Each solution or suspension was administered to female C3H/He mice at 8th week after birth, one group consisting of 5 animals and the number of groups being four, the dosage being 2.0 g of cyclodextrin/kg of body weight/day, continuously for 2 weeks.
(§3) Before and 7 days after the administration, feces of each mouse was collected, and after diluting the collected feces with 100 times by weight of an anaerobic phosphate buffer and grinding the diluted feces, each 0.1 ml of the ground feces was inoculated on each culture medium (refer to Table 3) for the specified bacterial species, and the thus inoculated culture media were incubated at 37° C. for one to five days under the aerobic conditions or anaerobic conditions (according to the anaerobic grove box method).
NBGT agar same as above
(§4) After the incubation was over, the number of bifidobacteria, Escherichia coli, Lactobacilli and Bacteroides sp. in the culture medium was counted. The results are shown in Tables 4 to 7, the counts being the average of five mice.

[6] = test system: bifidobacteria; experiment: Intestinal proliferation of bifidobacteria in mice, viable count in feces; type: in vivo, female C3H/He mice; details: for Rate of proliferation (B/A), bifidobacteria / Viable count 7 days after (B) administration, bifidobacteria: 2.0 g/kg/day; for Rate of proliferation (B/A), bifidobacteria: 7 days after / before; for Viable count 7 days after (B) administration, bifidobacteria / Viable count before (A) administration, bifidobacteria: average of five mice
Procedure: The activity of cyclodextrin in promoting the intestinal proliferation of bifidobacteria was recognized by the results of test as described below. Namely, cyclodextrin was administered orally to test animals such as mouse at the dose of 2 g/kg of body weight per day for 2 weeks, and the number of viable intestinal bacteria such as bifidobacteria, Escherichia coli, Lactobacilli and Bacteroides sp. in the feces of the test animal seven days after the administration were counted by the conventional method. […] Namely, when the bifidobacteria-proliferating agent of the invention is administered to the living body, it is possible to proliferate only bifidobacteria in the intestine of the living body without disturbing the intraintestinal bacterial flora.
as §2, §3
BS agar anaerobic, 37° C., 5 days
as §4

[7] = test system: Escherichia coli; experiment: Viable count of Escherichia coli in feces of mice; type: in vivo, female C3H/He mice; details: for Rate of proliferation (B/A), Escherichia coli / Viable count 7 days after (B) administration, Escherichia coli: 2.0 g/kg/day; for Rate of proliferation (B/A), Escherichia coli: 7 days after / before; for Viable count 7 days after (B) administration, Escherichia coli / Viable count before (A) administration, Escherichia coli: average of five mice
Procedure: as §2, §3
DHL agar aerobic, 37° C., one day
as §4

[8] = test system: Lactobacilli; experiment: Viable count of Lactobacilli in feces of mice; type: in vivo, female C3H/He mice; details: for Rate of proliferation (B/A), Lactobacilli / Viable count 7 days after (B) administration, Lactobacilli: 2.0 g/kg/day; for Rate of proliferation (B/A), Lactobacilli: 7 days after / before; for Viable count 7 days after (B) administration, Lactobacilli / Viable count before (A) administration, Lactobacilli: average of five mice
Procedure: as §2, §3, §4

Compound `OC[C@H]1O[C@@H]2O[C@H]3[C@H](O)[C@@H](O)[C@@H](O[C@H]4[C@H](O)[C@@H](O)[C@@H](O[C@H]5[C@H](O)[C@@H](O)[C@@H](O[C@H]6[C@H](O)[C@@H](O)[C@@H](O[C@H]7[C@H](O)[C@@H](O)[C@@H](O[C@H]1[C@H](O)[C@H]2O)O[C@@H]7CO)O[C@@H]6CO)O[C@@H]5CO)O[C@@H]4CO)O[C@@H]3CO` [α-cyclodextrin] has an LD50 ([1]; ip, intraperitoneal) of over 1200 mg/kg, an LD50 ([1]; sc, subcutaneous) of over 1500 mg/kg and an LD50 ([1]; oral) of over 12000 mg/kg. For the same compound, the LD50 ([2]; intraperitoneal) was over 1200 mg/kg, the LD50 ([2]; oral) was over 12000 mg/kg and the LD50 ([2]; subcutaneous) was over 1500 mg/kg. It also gave an LD50 ([3]; ip, intraperitoneal) of over 900 mg/kg, an LD50 ([3]; sc, subcutaneous) of over 900 mg/kg and an LD50 ([3]; oral) of over 12500 mg/kg. It also gave an LD50 ([4]; intraperitoneal) of over 900 mg/kg, an LD50 ([4]; oral) of over 12500 mg/kg and an LD50 ([4]; subcutaneous) of over 900 mg/kg.
With `OC[C@H]1O[C@@H]2O[C@H]3[C@H](O)[C@@H](O)[C@@H](O[C@H]4[C@H](O)[C@@H](O)[C@@H](O[C@H]5[C@H](O)[C@@H](O)[C@@H](O[C@H]6[C@H](O)[C@@H](O)[C@@H](O[C@H]7[C@H](O)[C@@H](O)[C@@H](O[C@H]8[C@H](O)[C@@H](O)[C@@H](O[C@H]9[C@H](O)[C@@H](O)[C@@H](O[C@H]1[C@H](O)[C@H]2O)O[C@@H]9CO)O[C@@H]8CO)O[C@@H]7CO)O[C@@H]6CO)O[C@@H]5CO)O[C@@H]4CO)O[C@@H]3CO` [γ-cyclodextrin] the “Rate of proliferation (B/A), Bacteroides sp.” value (from here on “Rate … Bacteroides sp.”) [5] was 3.00, the “Viable count 7 days after (B) administration, Bacteroides sp.” value (shortened to “Viable count 7 days … Bacteroides sp.”) [5] was 3.0 × 10^8 per g of the feces and the “Viable count before (A) administration, Bacteroides sp.” value (shortened to “Viable count before … Bacteroides sp.”) [5] was 1.0 × 10^8 per g of the feces. For the same compound, the LD50 ([1]; ip, intraperitoneal) was over 1200 mg/kg, the LD50 ([1]; sc, subcutaneous) was over 1500 mg/kg and the LD50 ([1]; oral) was over 12000 mg/kg. The LD50 ([2]; intraperitoneal) was over 1200 mg/kg, the LD50 ([2]; oral) was over 12000 mg/kg and the LD50 ([2]; subcutaneous) was over 1500 mg/kg. For the same compound, the “Rate of proliferation (B/A), bifidobacteria” value (shortened to “Rate … bifidobacteria”) [6] was 90, the “Viable count 7 days after (B) administration, bifidobacteria” value (shortened to “Viable count 7 days … bifidobacteria”) [6] was 1.8 × 10^6 per g of the feces and the “Viable count before (A) administration, bifidobacteria” value (from here on “Viable count before … bifidobacteria”) [6] was 2.0 × 10^4 per g of the feces. For the same compound, the “Rate of proliferation (B/A), Escherichia coli” value (“Rate … Escherichia coli” for short) [7] was 0.93, the “Viable count 7 days after (B) administration, Escherichia coli” value (“Viable count 7 days … Escherichia coli” below) [7] was 7.0 × 10^6 per g of the feces and the “Viable count before (A) administration, Escherichia coli” value (from here on “Viable count before … Escherichia coli”) [7] was 7.5 × 10^6 per g of the feces. It also gave an LD50 ([3]; ip, intraperitoneal) of over 900 mg/kg, an LD50 ([3]; sc, subcutaneous) of over 900 mg/kg and an LD50 ([3]; oral) of over 12500 mg/kg. It also gave an LD50 ([4]; intraperitoneal) of over 900 mg/kg, an LD50 ([4]; oral) of over 12500 mg/kg and an LD50 ([4]; subcutaneous) of over 900 mg/kg. The “Rate of proliferation (B/A), Lactobacilli” value (shortened to “Rate … Lactobacilli”) [8] was 0.78, the “Viable count 7 days after (B) administration, Lactobacilli” value (“Viable count 7 days … Lactobacilli” for short) [8] was 7.0 × 10^8 per g of the feces and the “Viable count before (A) administration, Lactobacilli” value (shortened to “Viable count before … Lactobacilli”) [8] was 9.0 × 10^8 per g of the feces.
For dextrin [reference compound], the “Rate … Bacteroides sp.” value [5] was 2.50, the “Viable count 7 days … Bacteroides sp.” value [5] was 8.0 × 10^8 per g of the feces and the “Viable count before … Bacteroides sp.” value [5] was 3.2 × 10^8 per g of the feces. For the same compound, the “Rate … bifidobacteria” value [6] was 0.70, the “Viable count 7 days … bifidobacteria” value [6] was 1.6 × 10^5 per g of the feces and the “Viable count before … bifidobacteria” value [6] was 2.3 × 10^5 per g of the feces. For the same compound, the “activity to the proliferation of bifidobacteria, in words” value ([6]; mouse, oral, Table 7) was “did not exhibit such an activity”, the “Rate … Escherichia coli” value [7] was 0.80 and the “Viable count 7 days … Escherichia coli” value [7] was 7.2 × 10^6 per g of the feces. For the same compound, the “Viable count before … Escherichia coli” value [7] was 9.0 × 10^6 per g of the feces, the “Rate … Lactobacilli” value [8] was 1.20 and the “Viable count 7 days … Lactobacilli” value [8] was 6.0 × 10^8 per g of the feces. For the same compound, the “Viable count before … Lactobacilli” value [8] was 5.0 × 10^8 per g of the feces.
With `OC[C@H]1O[C@@H]2O[C@H]3[C@H](O)[C@@H](O)[C@@H](O[C@H]4[C@H](O)[C@@H](O)[C@@H](O[C@H]5[C@H](O)[C@@H](O)[C@@H](O[C@H]6[C@H](O)[C@@H](O)[C@@H](O[C@H]7[C@H](O)[C@@H](O)[C@@H](O[C@H]8[C@H](O)[C@@H](O)[C@@H](O[C@H]1[C@H](O)[C@H]2O)O[C@@H]8CO)O[C@@H]7CO)O[C@@H]6CO)O[C@@H]5CO)O[C@@H]4CO)O[C@@H]3CO` [β-cyclodextrin] the “Rate … Bacteroides sp.” value [5] was 1.06, the “Viable count 7 days … Bacteroides sp.” value [5] was 3.7 × 10^8 per g of the feces and the “Viable count before … Bacteroides sp.” value [5] was 3.5 × 10^8 per g of the feces. It also gave an LD50 ([1]; ip, intraperitoneal) of over 1200 mg/kg, an LD50 ([1]; sc, subcutaneous) of over 1500 mg/kg and an LD50 ([1]; oral) of over 12000 mg/kg. It also gave an LD50 ([2]; intraperitoneal) of over 1200 mg/kg, an LD50 ([2]; oral) of over 12000 mg/kg and an LD50 ([2]; subcutaneous) of over 1500 mg/kg. For the same compound, the “Rate … bifidobacteria” value [6] was 1385, the “Viable count 7 days … bifidobacteria” value [6] was 1.8 × 10^8 per g of the feces and the “Viable count before … bifidobacteria” value [6] was 1.3 × 10^5 per g of the feces. The “Rate … Escherichia coli” value [7] was 1.45, the “Viable count 7 days … Escherichia coli” value [7] was 5.8 × 10^6 per g of the feces and the “Viable count before … Escherichia coli” value [7] was 4.0 × 10^6 per g of the feces. It also gave an LD50 ([3]; ip, intraperitoneal) of over 900 mg/kg, an LD50 ([3]; sc, subcutaneous) of over 900 mg/kg and an LD50 ([3]; oral) of over 12500 mg/kg. For the same compound, the LD50 ([4]; intraperitoneal) was over 900 mg/kg, the LD50 ([4]; oral) was over 12500 mg/kg and the LD50 ([4]; subcutaneous) was over 900 mg/kg. The “Rate … Lactobacilli” value [8] was 1.47, the “Viable count 7 days … Lactobacilli” value [8] was 2.2 × 10^9 per g of the feces and the “Viable count before … Lactobacilli” value [8] was 1.5 × 10^9 per g of the feces.
